Data taken from publication PMC9050674, “Structure-based inhibitor design for reshaping bacterial morphology” (Communications Biology, 2022).
“And” between values parts separate entries of the source, which are not always exact repeats. Identical values can stand only once.

System: C. jejuni (ATCC 33560)
Assay: Drug accumulation assay (LC-MS)
Description: The accumulation assay was adapted from two different methods[42],[43]. […] The culture was grown overnight at 42 °C under the micro-aerobic condition. The cells were harvested at 6000 g for 15 min and washed with 1 × PBS, followed by resuspension in pre-warmed 1 × PBS to ~10^10 CFU/mL. The cell suspension (1.2 mL) was dispensed into a 24-well plate. Each compound to be examined was added into each well (final concentration = 100 μM). […] After incubation with shaking at 37 °C for 20 min, OD600 of each sample was measured, and the cells were harvested at 6000 g for 10 min at 4 °C. The pellets were resuspended in 250 μL of water, followed by three cycles of Freeze-Thaw with a dry ice/ethanol bath and a 37 °C-heating block in order to extract the compounds from C. jejuni. The cells were pelleted at 13,000 g for 5 min at room temperature. The supernatants (220 μL) were transferred to new tubes. The pellets were resuspended in 100 μL of methanol with vigorous vortexing for 1 min, followed by pelleting as before. The supernatants (100 μL) were combined with the solutions previously collected. The residual cell debris were removed at 20,000 g for 15 min at room temperature. The supernatants (300 μL) were dried with Genevac™ miVac Centrifugal Concentrator at room temperature for 5 h. Finally, the samples were resuspended with appropriate solvents and analyzed by LC-MS.
The suspension was centrifuged and the supernatant was analyzed by LC-MS. LC-MS systems consists of a Bruker impact II ultra-high resolution Qq-time-of-flight mass spectrometer using Hystar 5.0 SR1 software with a Waters Acquity UPLC H-Class system equipped with a quaternary solvent manager, a sample manager-FTN, and a photodiode array detector. The Bruker electrospray ionization source was operated in the positive ion mode, except for BMK-S301 (in the negative ion mode). […] A four-step 10-min LC gradient was as follows: 3 min at 98:2; 3 min to 85:15; 0.1 min to 98:2; 3.9 min at 98:2 for BMK-S101, -S203, and -S301. The ratio of the mobile phases (A = 0.1% formic acid in water, B = 0.1% formic acid in ACN) is given as A:B in LC gradients. […] The quantification was done by integrating the peak areas from extracted-ion chromatograms of corresponding m/z values of each compound.

With `CC(=O)N[C@@H](Cc1ccc(S(N)(=O)=O)cc1)C(=O)N[C@H](C)C(=O)NO` [BMK-S301] the “accumulation fold higher than for BMK-S203” value (100 μM compound) was 54 fold, the “accumulation fold higher than for ciprofloxacin” value (100 μM compound) was 8 fold and the “intracellular concentration (accumulation)” value (100 μM compound, 37 °C, 20 min, LC-MS, mean) was 16.2 ± 1.0 nmole/10^11 CFU. The “µM (concentration in LC-MS sample)” value (single replicates (First, Second, Third), total volume 200 (r6-r19) or 100 (r23-r30), source data Fig. 5b) was 0.766 µM and 0.686 µM and 1.447 µM and 1.359 µM and 1.398 µM and 0.649 µM, the “nmol/1011 CFUs” value (single replicates, source data Fig. 5b) was 17.92 nmol/1011 CFUs and 16.41 nmol/1011 CFUs and 16.422 nmol/1011 CFUs and 15.620 nmol/1011 CFUs and 15.458 nmol/1011 CFUs and 15.07 nmol/1011 CFUs and the Total nmol (single replicates, total volume 200 or 100, source data Fig. 5b) was 0.1532 nmol and 0.1372 nmol and 0.1447 nmol and 0.1359 nmol and 0.1398 nmol and 0.1298 nmol.
